According to US4971995A, “Alkyl or benzyl phenol ethers, their preparation and their therapeutic uses” (Delande S.A., priority 1988, dated 1990):
Where two headings read alike, the source gives them in different places.

Assays:
[1] = biological target: T1, form A of monoamine oxydase (Rattus norvegicus, UniProt P21396); test: in vitro inhibition of monoamine oxydase form A (homogenized rat brain, (14C) serotonine substrate); format: biochemical, rat (male Sprague-Dawley, entire brain); conditions: rat brain homogenate
T1 construct: monoamine oxydase in rat brain tissue; from tissue; host or cells: homogenized entire brain of male Sprague-Dawley rat
T1 sequence (P21396 1-526): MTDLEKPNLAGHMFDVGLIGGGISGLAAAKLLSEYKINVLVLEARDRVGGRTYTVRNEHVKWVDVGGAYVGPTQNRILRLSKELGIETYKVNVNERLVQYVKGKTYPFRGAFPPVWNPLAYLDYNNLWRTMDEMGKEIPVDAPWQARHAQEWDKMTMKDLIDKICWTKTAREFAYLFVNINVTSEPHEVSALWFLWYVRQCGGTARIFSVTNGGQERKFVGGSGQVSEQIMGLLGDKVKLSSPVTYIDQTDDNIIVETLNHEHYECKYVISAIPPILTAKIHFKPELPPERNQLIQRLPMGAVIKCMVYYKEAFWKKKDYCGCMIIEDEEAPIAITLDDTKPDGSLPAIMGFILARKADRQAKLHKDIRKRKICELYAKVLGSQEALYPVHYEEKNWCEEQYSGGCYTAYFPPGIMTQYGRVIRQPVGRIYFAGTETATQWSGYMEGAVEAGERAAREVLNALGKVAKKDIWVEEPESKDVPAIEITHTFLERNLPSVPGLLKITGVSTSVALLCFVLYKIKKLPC
Procedure: Pharmacol., 1983, 35, 161-165.
(§1) Inhibition constants KIA and KIB on forms A and B of mono-
(§2) amine oxydase (homogenized entire brain of a male rate
(§3) (Sprague-Dawley): 1 g of tissue to 16 ml of phosphate
(§4) The inhibition constants were calculated from the formula: KI =
CI50 /l + [S]/Km taking [S] = 48 μM for (^14 C)
serotonine and Km = 100 μM, or [S] = 12 μM for (^14 C)
phenylethylamine and Km = 6 μM
(§5) as the selective substrates for forms A and B respectively of monoamine oxydase.

[2] = biological target: T2, form B of monoamine oxydase (Rattus norvegicus, UniProt P19643); test: in vitro inhibition of monoamine oxydase form B (homogenized rat brain, (14C) phenylethylamine substrate); format: biochemical, rat (male Sprague-Dawley, entire brain); conditions: for Ki: rat brain homogenate, pH 7.4, (14C) phenylethylamine; for KIA /KIB, no pre-incubation / KIA /KIB, after 20 min pre-incubation: selectivity ratio form A / form B
T2 construct: monoamine oxydase in rat brain tissue; from tissue; host or cells: homogenized entire brain of male Sprague-Dawley rat
T2 sequence (P19643 1-520): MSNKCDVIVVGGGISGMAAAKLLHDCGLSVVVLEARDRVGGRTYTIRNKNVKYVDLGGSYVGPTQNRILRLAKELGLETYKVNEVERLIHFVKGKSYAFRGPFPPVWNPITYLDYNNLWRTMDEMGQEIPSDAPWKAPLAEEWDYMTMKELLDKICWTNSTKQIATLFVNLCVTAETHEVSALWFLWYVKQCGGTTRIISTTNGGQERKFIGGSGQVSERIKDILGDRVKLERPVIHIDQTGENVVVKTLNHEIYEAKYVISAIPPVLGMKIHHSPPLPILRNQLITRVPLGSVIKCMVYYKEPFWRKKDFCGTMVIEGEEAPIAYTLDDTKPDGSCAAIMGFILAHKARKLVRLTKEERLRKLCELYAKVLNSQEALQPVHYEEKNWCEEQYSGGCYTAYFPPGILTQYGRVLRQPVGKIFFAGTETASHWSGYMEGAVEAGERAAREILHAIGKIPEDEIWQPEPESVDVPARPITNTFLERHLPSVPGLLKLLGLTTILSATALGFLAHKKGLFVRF
Procedure: as §1, §2, §3, §4, §5

[3] = no pre-incubation, pH 7.4, read-out: Inhibition constant KIA, no pre-incubation
[4] = no pre-incubation, read-out: Inhibition constant KIB, no pre-incubation
[5] = after 20 min pre-incubation, pH 7.4, read-out: Inhibition constant KIA, after 20 min pre-incubation
[6] = after 20 min pre-incubation, read-out: Inhibition constant KIB, after 20 min pre-incubation

Compound | Ki [1, 3] | Ki [2, 4] | KIA /KIB, no pre-incubation ([2]; no pre-incubation) | Ki [1, 5] | Ki [2, 6] | KIA /KIB, after 20 min pre-incubation ([2]; after 20 min pre-incubation)
OCCCCc1ccc(OCc2cccc(Cl)c2)cc1 [compound 200123] | > 1720 nM | 232 nM | > 7 | – | – | –
COC(CO)COc1ccc(OCc2cccc(Cl)c2)cc1 (racemic) [compound 200213, [(chloro-3 phenylmethyloxy)-4 phenoxy]-3 methoxy-2 propanol-1 (±)] | > 5170 nM | 543 nM | > 9.5 | – | – | –
COCC(COc1ccc(OCc2cccc(Cl)c2)cc1)OC (racemic) [compound 200210] | > 1720 nM | 403 nM | > 4 | > 1720 nM | 570 nM | > 3

Further lines, results first:

Ki [1, 3] | Ki [2, 4] | KIA /KIB, no pre-incubation ([2]; no pre-incubation) | Ki [1, 5] | Ki [2, 6] | KIA /KIB, after 20 min pre-incubation ([2]; after 20 min pre-incubation) | Compound
– | – | – | 1650 nM | – | – | COC[C@H](O)COc1ccc(OCc2cccc(Cl)c2)cc1 [compound 280040, [(chloro-3 phenylmethyloxy)-4 phenoxy]-1 methoxy-3 propanol-2 S (+)]
– | – | – | 5430 nM | 79 nM | 69 | COCCCC(O)c1ccc(OCc2cccc(Cl)c2)cc1 (racemic) [compound 280190, [(chloro-3 phenylmethyloxy)-4 phenyl]-1 methoxy-4 butanol-1 (±)]
